“Also recorded” adds a separate entry of the source.
Key:
ovine COX-1 = target: T1, ovine COX-1 (Ovis aries, UniProt P05979); test: IC50 determinations using purified enzymes (TLC assay), COX-1; format: biochemical; conditions: assayed against purified enzymes
T1 construct: can be purified from ovine seminal vesicles by standard procedures; from tissue; host or cells: ovine seminal vesicles
T1 sequence (P05979 25-600): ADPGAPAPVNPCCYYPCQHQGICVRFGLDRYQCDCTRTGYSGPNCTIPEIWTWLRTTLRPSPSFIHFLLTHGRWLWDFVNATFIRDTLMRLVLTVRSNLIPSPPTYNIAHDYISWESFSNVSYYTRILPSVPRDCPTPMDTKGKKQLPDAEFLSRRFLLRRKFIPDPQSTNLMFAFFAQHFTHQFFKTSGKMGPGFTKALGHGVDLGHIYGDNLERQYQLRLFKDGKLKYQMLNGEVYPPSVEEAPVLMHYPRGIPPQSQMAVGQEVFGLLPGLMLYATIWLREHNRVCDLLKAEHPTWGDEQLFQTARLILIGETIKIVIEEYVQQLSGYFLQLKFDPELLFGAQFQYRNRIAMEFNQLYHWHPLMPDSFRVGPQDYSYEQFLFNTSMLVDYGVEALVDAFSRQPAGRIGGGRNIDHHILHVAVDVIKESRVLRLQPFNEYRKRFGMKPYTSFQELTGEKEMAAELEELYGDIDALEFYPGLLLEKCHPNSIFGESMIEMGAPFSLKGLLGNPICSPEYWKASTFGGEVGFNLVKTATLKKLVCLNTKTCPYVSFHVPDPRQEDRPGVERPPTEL

COX-1 = target: T2, COX-1 (Mus musculus, UniProt P22437); test: Macrophage assay (RAW264.7), COX-1; format: cell-based, murine
T2 sequence (P22437 1-602): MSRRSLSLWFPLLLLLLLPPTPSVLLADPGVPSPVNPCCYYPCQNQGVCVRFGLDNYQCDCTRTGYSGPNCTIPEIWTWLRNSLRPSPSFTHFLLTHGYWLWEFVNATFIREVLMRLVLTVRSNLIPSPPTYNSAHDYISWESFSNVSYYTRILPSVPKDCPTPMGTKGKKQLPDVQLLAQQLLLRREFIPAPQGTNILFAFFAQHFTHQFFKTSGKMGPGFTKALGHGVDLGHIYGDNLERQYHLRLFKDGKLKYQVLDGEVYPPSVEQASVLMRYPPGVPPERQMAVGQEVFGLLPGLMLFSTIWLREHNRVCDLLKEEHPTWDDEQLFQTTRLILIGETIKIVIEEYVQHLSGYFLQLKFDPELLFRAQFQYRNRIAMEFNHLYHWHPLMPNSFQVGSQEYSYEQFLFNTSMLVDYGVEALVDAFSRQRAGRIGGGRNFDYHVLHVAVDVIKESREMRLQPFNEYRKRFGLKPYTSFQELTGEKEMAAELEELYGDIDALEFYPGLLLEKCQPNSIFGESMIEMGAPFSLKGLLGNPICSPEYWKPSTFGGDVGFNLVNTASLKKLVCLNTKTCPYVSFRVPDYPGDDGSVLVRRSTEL
Source text: Thus, NSAID derivatives that are identified as potentially useful in the methods described herein can be further tested using, for example, the RAW264.7 murine macrophage cell line. These cells are readily available (for example, from the American Type Culture Collection (ATCC), Manassas, Va., United States of America) and are easily cultured in large numbers. They normally express low levels of COX-1 and very low to undetectable levels of COX-2. Upon exposure to bacterial lipopolysaccharide (LPS), however, COX-2 levels increase dramatically over the ensuing 24 hour period, and the cells produce PGD2 and PGE2 from endogenous arachidonic acid stores (generally, ˜1 nmol/10^7 cells total PG formation). After LPS exposure, the addition of exogenous arachidonic acid results in the formation of additional PGD2 and PGE2 as a result of metabolism by the newly synthesized COX-2.
This system provides a number of approaches for testing the inhibitory potency of COX-2-selective ligands (e.g., inhibitors). In general, following LPS activation, cells can be treated for 30 minutes with the desired concentrations of candidate derivative(s) in DMSO. ^14C-arachidonic acid can be added, and the cells can be incubated for 15 minutes at 37° C. Product formation can be assessed following extraction and TLC separation of the culture medium. Alternatively, the effects of candidate derivatives on PG synthesis from endogenous arachidonic acid can be assessed by incubating cells with desired concentrations of candidate derivatives 30 minutes prior to LPS exposure. Following a 24-hour incubation, medium can be collected and extracted, and the amount of PGD2 and/or PGE2 can be assayed by gas chromatography-mass spectrometry, liquid chromatography-mass spectrometry, or ELISA.

[1] = test system: COX-2-transformed HEK293 cells; test: In vitro cell imaging, HEK293 cells expressing human COX-2; format: cell-based; conditions: HEK293/COX-2; for fluorescent staining of cells: 200 nM; for fluorescent staining after indomethacin pretreatment: indomethacin (20 μM) pretreatment
Description: A second experimental design employed HEK293 cells (a cell line generated by transformation of human embryonic kidney cell cultures with adenovirus) that had been transformed with an expression construct encoding a constitutively active human COX-2. For imaging experiments, cells were also plated on 35 mm culture dishes (MatTek Corp., Ashland, Mass., United States of America) with glass coverslips and grown to 70% confluency in DMEM plus 20% FBS. When the appropriate confluency was reached (approximately 48 hours after plating), the medium was replaced with DMEM/1% FBS and exposed to 200 nM Compound 27vv or Compound 27ww as described hereinabove. After 30 minutes, the cells were washed briefly 3 times and incubated in DMEM/10% FBS for 60 minutes at 37° C. After 60 minutes, the medium was removed and the cells were washed with HBSS/Tyrode's. After the second wash, fresh HBSS/Tyrode's was added and the cells were immediately imaged using a Zeiss Axiovert 25 Microscope (propidium iodide filter/3 sec exposure/gain of 3).

Row | SMILES | IC50 (ovine COX-1; Table 3) | IC50 (COX-1; Table 3, macrophage assay) | IC50 (ovine COX-1; Table 2) | IC50 (COX-1; Table 2, macrophage assay (M)) | fluorescent staining of cells [1] | fluorescent staining after indomethacin pretreatment [1]
1 | COc1ccc2c(c1)c(CC(=O)NCCCCNC(=O)c1ccc(C3=c4cc5c6c(c4Oc4c3cc3c7c4CCCN7CCC3)CCC[N+]=6CCC5)c(C(=O)[O-])c1)c(C)n2C(=O)c1ccc(Cl)cc1 [Compound 27eee] | > 25 µM | > 5e-06 M |  |  | good specific staining; also recorded: fluorescence above the level observed in control HEK293 cells | reducible by pretreatment with indomethacin
2 | COc1ccc2c(c1)c(CC(=O)NCCCCNC(=O)c1ccc(C(=O)[O-])c(C3=c4cc5c6c(c4Oc4c3cc3c7c4CCCN7CCC3)CCC[N+]=6CCC5)c1)c(C)n2C(=O)c1ccc(Cl)cc1 [Compound 27vv] | > 25 µM | > 5e-06 M |  |  | clearly observable fluorescent staining; also recorded: fluorescence above the level observed in control HEK293 cells | reduced
3 | COc1ccc2c(c1)c(CC(=O)NCCNS(=O)(=O)c1cccc3c(N(C)C)cccc13)c(C)n2C(=O)c1ccc(Cl)cc1 [Compound 27x] | > 25 µM | > 1e-06 M |  |  |  | 
4 | COC(=O)c1cc(-c2ccc(C)cc2)n(-c2ccc(S(N)(=O)=O)cc2)n1 [Compound 30b] |  |  | > 25 µM | > 5e-06 M |  | 

Continued, in another order:

Row | IC50 (ovine COX-1; Table 3) | IC50 (COX-1; Table 3, macrophage assay) | IC50 (ovine COX-1; Table 2) | IC50 (COX-1; Table 2, macrophage assay (M)) | SMILES | fluorescent staining of cells [1] | fluorescent staining after indomethacin pretreatment [1]
5 | > 25 µM | > 2.5e-06 M |  |  | COc1ccc2c(c1)c(CC(=O)NCCNS(=O)(=O)c1ccc(/N=N/c3ccc(N(C)C)cc3)cc1)c(C)n2C(=O)c1ccc(Cl)cc1 [Compound 27aa, N-(2-Dabsylaminoethyl)-2-{1-(4-chlorobenzoyl)-5-methoxy-2-methyl-1H-indol-3-yl}acetamide] |  | 
6 | > 25 µM | > 1e-05 M |  |  | COc1ccc2c(c1)c(CC(=O)NCCCCNC(=O)Cc1ccc(Nc3ccc([N+](=O)[O-])c4nonc34)cc1)c(C)n2C(=O)c1ccc(Cl)cc1 [Compound 27ii, N-([2-{4-(7-nitrobenzo[1,2,5]oxadiazol-4-ylamino)phenyl}acetamido]but-4-yl)-2-{1-(4-chlorobenzoyl)-5-methoxy-2-methyl-1H-indol-3-yl]acetamide] |  | 
7 | > 25 µM | > 5e-06 M |  |  | COc1ccc2c(c1)c(CC(=O)NCCCCNC(=O)c1ccc(C(=O)O)c(-c3c4ccc(=O)cc-4oc4cc(O)ccc34)c1)c(C)n2C(=O)c1ccc(Cl)cc1 [Compound 27qq, N-[(Fluorescein-6-carboxylamido)but-4-yl]-2-[1-(4-chlorobenzoyl)-5-methoxy-2-methyl-1H-indol-3-yl)acetamide] |  | 
8 | > 25 µM | > 5e-06 M |  |  | CC[N+](CC)=c1ccc2c(-c3ccccc3)c(C)c(/C=C/C=C3/N(CCCCCC(=O)NCCCCNC(=O)Cc4c(C)n(C(=O)c5ccc(Cl)cc5)c5ccc(OC)cc45)c4ccc(S(=O)(=O)[O-])cc4C3(C)C)oc-2c1 [Compound 27ttt] |  | 
9 | > 25 µM | > 2.5e-05 M |  |  | CC[N+](CC)=c1ccc2nc3c(cc(NC(=O)CCOCCOCCOCCOCCNC(=O)Cc4c(C)n(C(=O)c5ccc(Cl)cc5)c5ccc(OC)cc45)c4ccccc43)oc-2c1 [Compound 27uu, N-[5-)1-{1-(4-chlorobenzoyl)-5-methoxy-2-methyl-1H-indol-3-yl}-2-6,9,12,15-tetraoxa-3-azaoctadecanamido]-9H-benzo[a]penoxazin-9-ylidene)-N-ethylethanaminium perchlorate] |  | 

From patent US7736624B2, “Methods and compositions for diagnostic and therapeutic targeting of COX-2” (priority 2006, dated 2010)
